Test [1] has as its target T1, hFAAH (Homo sapiens, UniProt O00519).
T1 construct: made in house
T1 sequence (O00519 1-579): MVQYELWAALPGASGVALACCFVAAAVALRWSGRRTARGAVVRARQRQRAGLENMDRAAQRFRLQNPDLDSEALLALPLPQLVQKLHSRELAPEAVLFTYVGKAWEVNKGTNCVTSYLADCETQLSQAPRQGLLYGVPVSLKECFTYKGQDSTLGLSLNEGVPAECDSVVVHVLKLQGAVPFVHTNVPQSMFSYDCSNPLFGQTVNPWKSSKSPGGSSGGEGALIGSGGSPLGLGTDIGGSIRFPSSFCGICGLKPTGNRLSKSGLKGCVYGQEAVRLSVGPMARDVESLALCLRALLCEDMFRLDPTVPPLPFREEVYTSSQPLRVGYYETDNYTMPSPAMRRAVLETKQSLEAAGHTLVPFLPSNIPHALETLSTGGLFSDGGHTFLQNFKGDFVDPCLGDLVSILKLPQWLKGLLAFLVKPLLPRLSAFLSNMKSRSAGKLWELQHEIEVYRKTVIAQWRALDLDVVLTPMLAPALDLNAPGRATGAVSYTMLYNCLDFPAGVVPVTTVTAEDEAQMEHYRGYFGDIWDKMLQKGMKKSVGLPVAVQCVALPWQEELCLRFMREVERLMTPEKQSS
In words: recombinant FAAH enzyme with fluorescent substrate OMP (hFAAH IC50, screen). It is filed as biochemical.

The target in test [2] is T2, hsEH (Homo sapiens, UniProt P34913).
T2 sequence (P34913 1-555): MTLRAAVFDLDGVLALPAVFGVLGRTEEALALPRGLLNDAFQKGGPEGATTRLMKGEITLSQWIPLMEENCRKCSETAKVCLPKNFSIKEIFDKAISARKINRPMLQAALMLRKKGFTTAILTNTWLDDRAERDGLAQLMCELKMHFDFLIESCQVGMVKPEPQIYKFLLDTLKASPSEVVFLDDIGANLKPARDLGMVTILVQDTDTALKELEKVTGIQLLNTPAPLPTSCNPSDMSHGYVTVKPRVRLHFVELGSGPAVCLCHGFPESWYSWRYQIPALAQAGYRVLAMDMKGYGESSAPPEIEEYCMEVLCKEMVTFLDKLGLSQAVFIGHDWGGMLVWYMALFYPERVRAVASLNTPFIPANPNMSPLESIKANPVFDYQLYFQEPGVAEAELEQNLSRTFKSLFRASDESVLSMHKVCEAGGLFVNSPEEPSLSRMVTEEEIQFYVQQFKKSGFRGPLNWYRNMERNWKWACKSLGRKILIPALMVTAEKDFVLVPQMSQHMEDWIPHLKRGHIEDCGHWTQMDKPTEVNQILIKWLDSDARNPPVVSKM
Put plainly: human sEH inhibition (hsEH IC50). It counts as biochemical.

Test [3] has as its target T1, hFAAH. In words: hFAAH inhibition kinetics (KD, k2). It counts as biochemical.
Test [4] addresses T3, FAAH (Felis catus, UniProt A0ABI8A862).
T3 sequence (A0ABI8A862 1-541): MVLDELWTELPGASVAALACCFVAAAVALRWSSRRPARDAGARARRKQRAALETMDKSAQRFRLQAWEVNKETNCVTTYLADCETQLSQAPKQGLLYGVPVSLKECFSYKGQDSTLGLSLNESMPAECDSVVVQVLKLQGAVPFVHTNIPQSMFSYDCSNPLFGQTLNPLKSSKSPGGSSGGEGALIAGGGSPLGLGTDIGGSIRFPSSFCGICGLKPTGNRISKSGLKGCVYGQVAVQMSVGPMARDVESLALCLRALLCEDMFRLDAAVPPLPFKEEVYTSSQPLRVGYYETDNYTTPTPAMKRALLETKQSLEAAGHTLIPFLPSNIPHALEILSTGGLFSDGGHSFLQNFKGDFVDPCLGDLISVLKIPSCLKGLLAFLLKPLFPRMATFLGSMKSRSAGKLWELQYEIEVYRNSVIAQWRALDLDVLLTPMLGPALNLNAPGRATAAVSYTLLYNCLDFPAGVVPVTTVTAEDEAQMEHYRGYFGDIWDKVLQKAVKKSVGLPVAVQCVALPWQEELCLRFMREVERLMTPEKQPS
Particulars: read-out: FAAH IC50, Cat; brain microsome preparations.

Test [5] deals with T4, MAGL (Homo sapiens, UniProt Q99685).
T4 sequence (Q99685 1-303): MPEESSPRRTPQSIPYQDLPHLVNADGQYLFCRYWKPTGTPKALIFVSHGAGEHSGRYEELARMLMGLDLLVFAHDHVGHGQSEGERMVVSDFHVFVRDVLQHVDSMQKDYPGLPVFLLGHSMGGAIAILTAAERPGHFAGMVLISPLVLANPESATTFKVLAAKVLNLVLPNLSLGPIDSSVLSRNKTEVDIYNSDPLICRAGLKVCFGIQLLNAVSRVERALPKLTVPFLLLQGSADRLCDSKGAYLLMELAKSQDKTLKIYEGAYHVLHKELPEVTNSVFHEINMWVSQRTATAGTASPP
In words: serine hydrolase selectivity panel: MAGL.

For test [6], the target named is T5, sEH (Rattus norvegicus, UniProt P80299).
T5 sequence (P80299 1-554): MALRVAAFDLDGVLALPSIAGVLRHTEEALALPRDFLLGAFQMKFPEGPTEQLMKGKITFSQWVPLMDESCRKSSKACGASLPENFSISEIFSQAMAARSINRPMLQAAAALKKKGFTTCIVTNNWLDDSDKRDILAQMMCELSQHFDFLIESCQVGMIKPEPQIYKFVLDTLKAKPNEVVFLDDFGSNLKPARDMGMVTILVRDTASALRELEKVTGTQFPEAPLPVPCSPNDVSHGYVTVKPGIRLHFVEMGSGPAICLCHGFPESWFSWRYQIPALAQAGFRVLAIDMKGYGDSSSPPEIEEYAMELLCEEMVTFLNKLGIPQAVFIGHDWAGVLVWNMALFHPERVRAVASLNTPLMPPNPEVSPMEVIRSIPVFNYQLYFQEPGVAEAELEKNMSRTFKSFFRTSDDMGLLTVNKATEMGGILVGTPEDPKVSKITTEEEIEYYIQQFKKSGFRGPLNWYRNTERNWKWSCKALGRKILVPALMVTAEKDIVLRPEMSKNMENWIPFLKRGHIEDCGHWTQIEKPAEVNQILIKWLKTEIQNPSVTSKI
In words: biochemical.

Here are results for 8 molecules from patent US11873288B2, “Inhibitors for soluble epoxide hydrolase (sEH) and fatty acid amide hydrolase (FAAH)” (The Regents of the University of California, priority 2016, dated 2024).

As a reminder, the IC50 is the concentration that gives 50% inhibition. A word on the Kd: it is the constant that tells how readily two partners part at equilibrium.

Structures are written as SMILES.

`COc1ccc(NC(=O)N2CCC(c3nc(-c4ccccc4)cs3)CC2)cc1` [Compound B-10, N-(4-methoxyphenyl)-4-(4-phenylthiazol-2-yl)piperidine-1-carboxamide]: the figures for the IC50 in test [1] and in test [2] were 0.25 µM and 0.57 ± 0.17 µM, respectively. Also, the Kd in test [3] is 0.75 ± 0.02 µM. For the same molecule, in test [3], the “hFAAH k2” value worked out at 0.55 ± 0.02 min⁻¹.

`COc1ccc(NC(=O)N2CCC(Cc3cnc4ccccc4c3)CC2)cc1` [Compound B-5, N-(4-methoxyphenyl)-4-(quinolin-3-ylmethyl)piperidine-1-carboxamide]: in test [1], the IC50 came to 0.032 µM. For the same molecule, in test [2], it took 0.13 ± 0.04 µM to reach half-maximal inhibition (IC50) and the “increase of activity/potency towards sEH” value is recorded as 4 fold. Besides, in test [3], the Kd is 0.024 ± 0.004 µM and the “hFAAH k2” value stood at 0.37 ± 0.03 min⁻¹.

Turning to `O=C(Nc1cccnc1)N1CCC(Cc2cccc(Oc3ccc(C(F)(F)F)cn3)c2)CC1` [PF-3845], the IC50 was 0.0004 µM in test [1] and less than 0.0001 µM in test [4].

On to `O=C(Nc1ccc(OC(F)(F)F)cc1)N[C@H]1CC[C@H](Oc2ccc(C(=O)OCc3ccccc3)cc2)CC1` [Compound A-14, benzyl 4-((trans-4-(3-(4-(trifluoromethoxy)phenyl)ureido)cyclohexyl)oxy) benzoate], for which the IC50 in test [5] is greater than 10 µM; in test [4] it was greater than 1 µM.

On to `O=C(Nc1ccc(OC(F)(F)F)cc1)N[C@H]1CC[C@H](Oc2ccc(O)cc2)CC1` [Compound A-21, trans-1-(−4-(4-hydroxy-phenoxy)cyclohexyl)-3-(4-(trifluoromethoxy)phenyl)urea], for which the IC50 in test [5] was greater than 10 µM; in test [4] it was 0.13 µM.

With `COc1ccc(NC(=O)N2CCC(Cc3cccc(Oc4ccc(C(F)(F)F)cn4)c3)CC2)cc1` [Compound B-9, N-(4-methoxyphenyl)-4-(3-((5-(trifluoromethyl)pyridin-2-yl)oxy)benzyl) piperidine-1-carboxamide], the “increase in potency towards FAAH” value in test [1] (relative to B-5) is 32 fold. Besides, in test [3], the Kd stood at 0.0007 ± 0.00027 µM and the “hFAAH k2” value is 0.26 ± 0.03 min⁻¹.

For `COc1ccc(NC(=O)N2CCC(Cc3ccc4ccccc4c3)CC2)cc1` [Compound B-8, N-(4-methoxyphenyl)-4-(naphthalen-2-ylmethyl)piperidine-1-carboxamide], in test [1], the IC50 came out at 0.0074 µM. This molecule displayed an IC50 in test [2] of 0.12 ± 0.03 µM. Moreover, in test [3], the affinity, expressed as Kd, was 0.018 ± 0.004 µM and the “hFAAH k2” value turned out to be 0.26 ± 0.03 min⁻¹.

For `O=C(Nc1ccc(OC(F)(F)F)cc1)N[C@H]1CC[C@H](Oc2ccc(C(=O)O)cc2)CC1` [t-TUCB, trans-4-{4-[3-(4-trifluoromethoxyphenyl)-ureido]cyclohexyloxy}benzoic acid], the IC50 is greater than 10 µM in test [5], 0.054 µM in test [6] and greater than 1 µM in test [4].
